Patent publication US20230044690A1, “PROGESTERONE FORMULATION TO TRIGGER OVULATION AND PROVIDE LUTEAL PHASE SUPPORT” (AUGUSTA UNIVERSITY RESEARCH INSTITUTE, INC., priority 2019, published 2023)
Where two headings read alike, the source gives them in different places.

Legend:
[1] = circulating progestins, compared by activity with 0.5 ng preovulatory progesterone; cited from earlier work
[2] = test system: ovulation; assay type: in vivo, human
Method: For the natural cycle, they were monitored with ultrasound at the base line on day 2, and then day 12 and 13. At day 13 of the cycle, their leading follicle had reached a size of 17 mm (FIG. 4B), P4 was 1.5 ng/ml and LH was 5 IU/L. They were given an intramuscular injection of 5 mg of progesterone. The protocol is outlined in FIG. 4A
Failure of the follicle to rupture was attributed to its size (17 mm) at the time of the trigger.

[3] = test system: ovulation; assay type: in vivo, human; conditions: case 3
Method: A person, G2 P1, SAB1, height 152 cm, weight 164 lb was referred for infertility treatment following 6-month inability to conceive naturally. Patient's medical history was significant for PCOS and subclinical hypothyroidism, for which they were taking levothyroxine […]. Patient had menarche at 12, average period duration of 45 days, average menses duration of 6 days. Patient's fallopian tubes were both patent per HSG, with a normal uterine cavity (FIG. 6E). Their AMH was 9.3 ng/ml.
The medication regiment, at the beginning of the third attempt was the same as in the previous attempt when the patient became pregnant with 5 mg of Letrozole in addition to 100 mg CC for 5 days starting on the 3rd day of their period. […] Before the trigger […] P4 and LH were 0.62 ng/ml and 4.26 IU/L respectively (Table 3) and ultrasound identified three follicles 22, 22 and 19 mm (FIG. 6C-6D).
Seven days after the trigger shot, P4 level was 38.39 ng/ml at which time the patient was started on 200 mg progesterone vaginal suppository daily.

[4] = test system: gonadotropins surge; experiment: Reported progesterone dose and pharmacodynamics for induction of a gonadotropins surge (Leyendecker et al, 1972); assay type: in vivo, human; conditions: about 5 mg of progesterone in sesame oil, intramuscular injection; estimate from Leyendecker 1972
Method: The lowest dose of progesterone reported for induction of a gonadotropins surge is […] injected intramuscularly (Leyendecker, et al, 1972).
Consequently, the target cumulative progesterone level in circulation was 1 ng/ml. Based on pharmacodynamics of progesterone (Leyendecker, et al, 1972), it was estimated that in order to achieve circulating progesterone level at its peak (120 minutes post injection) 1 ng/ml, an additional […] was needed to add to the patient's own 0.63 ng/ml. This would be achieved with about 5 mg of progesterone in sesame oil for intramuscular injection. […] Furthermore, progesterone continued to rise to the expected level several days later. The patient's P4 level on day 5 post trigger was excellent and additional supplementation with progesterone thereafter was given only for an abundance of caution.

[5] = test system: gonadotropins surge; conditions: cited from earlier work

SMILES: C#CC1(O)CC[C@H]2[C@@H]3CCC4=CC(=O)CC[C@@H]4[C@H]3CC[C@@]21CC (mixture of isomers) [D/L norgestrel]
- Consensus value [1]: 0.075 mg

SMILES: CC(=O)[C@H]1CC[C@H]2[C@@H]3C=CC4=CC(=O)CC[C@@]4(C)[C@@H]3CC[C@]12C [Dydrogesterone]
- Consensus value [1]: 10 mg

SMILES: CC(=O)O[C@]1(C(C)=O)CC[C@H]2[C@@H]3C[C@H](C)C4=CC(=O)CC[C@]4(C)[C@H]3CC[C@@]21C [Medroxyprogesterone acetate]
- Consensus value [1]: 5 mg

SMILES: C#C[C@]1(O)CC[C@H]2[C@@H]3CCC4=CC(=O)CC[C@@H]4[C@H]3CC[C@@]21C [Norethindrone]
- Consensus value [1]: 0.35 mg

SMILES: CC(=O)[C@H]1CC[C@H]2[C@@H]3CCC4=CC(=O)CC[C@]4(C)[C@H]3CC[C@]12C [progesterone]
- Circulating hormone level LH ([2]; 0 hrs after trigger injection, 5 mg progesterone i.m., case 1): 10.9
- Follicle rupture ([2]; 17 mm leading follicle at trigger, 5 mg progesterone i.m., case 1): failed to rupture
- Circulating hormone level LH ([2]; 10 hrs after trigger injection, 5 mg progesterone i.m., case 1): 28.4
- Circulating hormone level LH ([2]; 49 hrs after trigger injection, 5 mg progesterone i.m., case 1): 11.36
- Time until LH was at the ovulation level ([2]; after 5 mg progesterone i.m., case 1): ≤ 12 h
- LH ([2]; day 13 of the cycle, before the progesterone injection, case 1): 5 IU/L
- P4 ([2]; female, human, in vivo): 1.5 ng/mL
- LH ([3]; 17 hours 30 minutes after trigger shot, 5 mg progesterone in oil): 37.01 IU/L
- LH ([3]; First follicular ultrasound, before trigger shot): 9.47 IU/L
- LH ([3]; Stimulation day 10, before trigger shot): 5.09 IU/L
- Ultrasound observation: uterine lining ([3]; day 3 after trigger shot): lining - 15.2 mm
- P4 level ([3]; day 5 post trigger): excellent
- LH ([3]; day of progesterone trigger shot (stimulation day 12), before the trigger): 4.26 IU/L
- Ultrasound observation: uterine lining ([3]; day of progesterone trigger shot, before the trigger): 10C-10D) Uterine lining 8.8 mm
- Pregnancy outcome ([3]; period 2 weeks later, 200 mg progesterone vaginal suppository daily from day 7): no pregnancy occurred
- Estimated additional circulating progesterone level at its peak [4]: 0.35 ng/mL
- Lowest dose reported for induction of a gonadotropins surge ([5]; injected intramuscularly): 10 mg
- Time of peak circulating progesterone level post injection ([5]; intramuscular injection): 120 min
